# Target: wild-type un-phosphorylated FGFR3 protein (Homo sapiens, UniProt P22607)
# Test: FGFR Enzymatic Assay (FRET detection of peptide phosphorylation)
# Assay type: biochemical
# Settings: pre-incubated for 4 hours, read-out: FGFR3_Ki
# Description: The inhibitor potency of the exemplified compounds was determined in an enzyme discontinuous assay that measures peptide phosphorylation using FRET measurements to detect product formation. Inhibitors were serially diluted in DMSO and a volume of 0.2 μL was transferred to the wells of a 384-well plate. A 5 μL/well volume of enzyme isoforms of FGFR (−1, −2, −3 wild-type and mutant isoforms, −4) including phosphorylated and un-phosphorylated proteins diluted in assay buffer (50 mM HEPES, 10 mM MgCl2, 1 mM EGTA, 0.01% Tween-20, 5 mM DTT, pH 7.5) was added to the plate and pre-incubated with inhibitor for 5 to 15 minutes at ambient temperature. Appropriate controls (enzyme blank and enzyme with no inhibitor) were included on the plate. […] The ATP Km values were pre-determined in a separate series of experiments. The reaction plate was incubated at 25° C. for 1 hr and the reactions were ended with the addition of 5 μL/well of quench solution (50 mM Tris, 150 mM NaCl, 0.5 mg/mL BSA, pH 7.8; 45 mM EDTA, 600 nM staurosporin, with Perkin Elmer Lance Reagents at 3.75 nM Eu-antibody PY20 and 180 nM APC-Streptavidin). The plate was allowed to equilibrate for ˜10 minutes at ambient temperature before scanning on a PheraStar plate reader (BMG Labtech) instrument.
# Either GraphPad prism or XLfit was used to analyze the data. The IC50 values were derived by fitting the data to a four parameter logistic equation producing a sigmoidal dose-response curve with a variable Hill coefficient. Prism equation: Y=Bottom+(Top−Bottom)/(1+10^((LogIC50−X)*Hill slope)); XLfit equation: Y=(A+((B−A)/(1+((X/C)^D)))) where X is the logarithm of inhibitor concentration and Y is the response.
# The data in Table 1 was measured in wild-type un-phosphorylated FGFR3 protein.
# Sequence of wild-type un-phosphorylated FGFR3 protein (P22607 23-806): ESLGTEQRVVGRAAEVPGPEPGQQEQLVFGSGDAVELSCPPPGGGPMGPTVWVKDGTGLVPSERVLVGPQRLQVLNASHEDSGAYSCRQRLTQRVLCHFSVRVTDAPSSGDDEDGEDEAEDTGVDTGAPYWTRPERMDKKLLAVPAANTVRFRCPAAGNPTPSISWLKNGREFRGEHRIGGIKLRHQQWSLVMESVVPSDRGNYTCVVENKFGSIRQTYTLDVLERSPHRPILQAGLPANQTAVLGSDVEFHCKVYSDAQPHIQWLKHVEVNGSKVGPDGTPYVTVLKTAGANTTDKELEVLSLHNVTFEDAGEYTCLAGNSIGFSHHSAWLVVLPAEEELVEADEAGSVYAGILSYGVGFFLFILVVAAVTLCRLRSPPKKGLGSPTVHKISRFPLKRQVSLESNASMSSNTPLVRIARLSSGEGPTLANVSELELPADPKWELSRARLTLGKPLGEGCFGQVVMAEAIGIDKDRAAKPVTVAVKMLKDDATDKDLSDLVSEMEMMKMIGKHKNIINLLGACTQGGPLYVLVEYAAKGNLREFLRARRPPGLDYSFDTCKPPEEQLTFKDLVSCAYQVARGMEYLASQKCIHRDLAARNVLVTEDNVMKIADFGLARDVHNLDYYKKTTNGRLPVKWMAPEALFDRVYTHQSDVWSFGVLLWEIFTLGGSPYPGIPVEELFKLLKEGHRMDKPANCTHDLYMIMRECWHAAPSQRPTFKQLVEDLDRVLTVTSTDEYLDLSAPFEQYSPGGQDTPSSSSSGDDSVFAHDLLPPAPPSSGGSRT
row,SMILES,Ki
1,"Cc1c(-c2c(Cl)cccc2Cl)nc2c3c(O[C@H]4CCOC4)c(-c4cnn(C)c4)cnc3ccn12 [Example 32, (S)-2-(2,6-Dichlorophenyl)-3-methyl-9-(1-methyl-1H-pyrazol-4-yl)-10-((tetrahydrofuran-3-yl)oxy)imidazo[2,1-f][1,6]naphthyridine]",100 to 400 nM
2,"Cc1c(-c2c(Cl)cccc2Cl)nc2c3cc(-c4cnn(C)c4)c(N(C)C)nc3ccn12 [Example 33, 2-(2,6-Dichlorophenyl)-N,N,3-trimethyl-9-(1-methyl-1H-pyrazol-4-yl)imidazo[2,1-f][1,6]naphthyridin-8-amine]",10 to 100 nM
3,"C=CC(=O)Nc1ccc(Cl)c(-c2nc3c4cc(-c5cnn(C)c5)cnc4ccn3c2C)c1Cl [Example 34, N-(2,4-Dichloro-3-(3-methyl-9-(1-methyl-1H-pyrazol-4-yl)imidazo[2,1-f][1,6]naphthyridin-2-yl)phenyl)acrylamide]",< 10 nM
4,"C=CC(=O)Nc1cccc(-c2nc3c4cc(-c5cnn(C)c5)cnc4ccn3c2C)c1 [Example 35, N-(3-(3-Methyl-9-(1-methyl-1H-pyrazol-4-yl)imidazo[2,1-f][1,6]naphthyridin-2-yl)phenyl)acrylamide]",10 to 100 nM
5,"C=CC(=O)Nc1ccccc1-c1nc2c3cc(-c4cnn(C)c4)cnc3ccn2c1C [Example 36, N-(2-(3-Methyl-9-(1-methyl-1H-pyrazol-4-yl)imidazo[2,1-f][1,6]naphthyridin-2-yl)phenyl)acrylamide]",100 to 400 nM
6,"Cc1c(-c2c(Cl)cccc2Cl)nc2c3cc(-c4cnn(C5CN(C(=O)C6(N)CC6)C5)c4)cnc3ccn12 [Example 37, (1-Aminocyclopropyl)(3-(4-(2-(2,6-dichlorophenyl)-3-methylimidazo[2,1-f][1,6]naphthyridin-9-yl)-1H-pyrazol-1-yl)azetidin-1-yl)methanone]",< 10 nM
7,"Cc1c(-c2c(Cl)cccc2Cl)nc2c3cc(-c4cnn(C5CN(C(=O)Cn6ccnc6)C5)c4)cnc3ccn12 [Example 38, 1-(3-(4-(2-(2,6-Dichlorophenyl)-3-methylimidazo[2,1-f][1,6]naphthyridin-9-yl)-1H-pyrazol-1-yl)azetidin-1-yl)-2-(1H-imidazol-1-yl)ethan-1-one]",< 10 nM
8,"Cc1c(-c2c(Cl)cccc2Cl)nc2c3cc(-c4cnn(C5CN(C(=O)c6cocn6)C5)c4)cnc3ccn12 [Example 39, (3-(4-(2-(2,6-Dichlorophenyl)-3-methylimidazo[2,1-f][1,6]naphthyridin-9-yl)-1H-pyrazol-1-yl)azetidin-1-yl)(oxazol-4-yl)methanone]",< 10 nM
9,"Cc1c(-c2c(Cl)cccc2Cl)nc2c3cc(-c4cnn(C5CN(C(=O)C6(N)CCOCC6)C5)c4)cnc3ccn12 [Example 40, (4-Aminotetrahydro-2H-pyran-4-yl)(3-(4-(2-(2,6-dichlorophenyl)-3-methylimidazo[2,1-f][1,6]naphthyridin-9-yl)-1H-pyrazol-1-yl)azetidin-1-yl)methanone]",< 10 nM
10,"Cc1c(-c2c(Cl)cccc2Cl)nc2c3cc(-c4cnn(C5CN(C(=O)CC#N)C5)c4)cnc3ccn12 [Example 41, 3-(3-(4-(2-(2,6-Dichlorophenyl)-3-methylimidazo[2,1-f][1,6]naphthyridin-9-yl)-1H-pyrazol-1-yl)azetidin-1-yl)-3-oxopropanenitrile]",< 10 nM
11,"O=C(O)c1ccc(Cn2cc(-c3cnc4ccn5cc(-c6c(Cl)cccc6Cl)nc5c4c3)cn2)cc1F [Example 42, 4-((4-(2-(2,6-Dichlorophenyl)imidazo[2,1-f][1,6]naphthyridin-9-yl)-1H-pyrazol-1-yl)methyl)-2-fluorobenzoic acid]",< 10 nM
12,"CN(C)C(=O)c1ccc(-n2cc(-c3cnc4ccn5cc(-c6c(Cl)cccc6Cl)nc5c4c3)cn2)cc1 [Example 43, 4-(4-(2-(2,6-Dichlorophenyl)imidazo[2,1-f][1,6]naphthyridin-9-yl)-1H-pyrazol-1-yl)-N,N-dimethylbenzamide]",10 to 100 nM
13,"COCC(=O)N[C@H]1CC[C@H](n2cc(-c3cnc4ccn5cc(-c6c(Cl)cccc6Cl)nc5c4c3)cn2)CC1 [Example 44, N-((1r,4r)-4-(4-(2-(2,6-Dichlorophenyl)imidazo[2,1-f][1,6]naphthyridin-9-yl)-1H-pyrazol-1-yl)cyclohexyl)-2-methoxyacetamide]",< 10 nM
14,"CN(C)C(=O)N[C@H]1CC[C@H](n2cc(-c3cnc4ccn5cc(-c6c(Cl)cccc6Cl)nc5c4c3)cn2)CC1 [Example 45, 3-((1r,4r)-4-(4-(2-(2,6-Dichlorophenyl)imidazo[2,1-f][1,6]naphthyridin-9-yl)-1H-pyrazol-1-yl)cyclohexyl)-1,1-dimethylurea]",< 10 nM
15,"CC(=O)N1CC2(CCC(n3cc(-c4cnc5ccn6cc(-c7c(Cl)cccc7Cl)nc6c5c4)cn3)CC2)C1 [Example 46, 1-(7-(4-(2-(2,6-Dichlorophenyl)imidazo[2,1-f][1,6]naphthyridin-9-yl)-1H-pyrazol-1-yl)-2-azaspiro[3.5]nonan-2-yl)ethan-1-one]",< 10 nM
16,"Cc1c(-c2c(Cl)cccc2Cl)nc2c3cc(-c4cnn(C5CCOCC5)c4)cnc3ccn12 [Example 47, 2-(2,6-Dichlorophenyl)-3-methyl-9-(1-(tetrahydro-2H-pyran-4-yl)-1H-pyrazol-4-yl)imidazo[2,1-f][1,6]naphthyridine]",< 10 nM
17,"Cc1c(-c2c(Cl)cccc2Cl)nc2c3cc(-c4cnn([C@H]5CC[C@H](O)CC5)c4)cnc3ccn12 [Example 48, (1r,4r)-4-(4-(2-(2,6-Dichlorophenyl)-3-methylimidazo[2,1-f][1,6]naphthyridin-9-yl)-1H-pyrazol-1-yl)cyclohexan-1-ol]",< 10 nM
18,"Cc1c(-c2c(Cl)cccc2Cl)nc2c3cc(-c4cnn(C5CCC(C)(C(=O)O)CC5)c4)cnc3ccn12 (stereo not drawn) [Example 49, 4-(4-(2-(2,6-Dichlorophenyl)-3-methylimidazo[2,1-f][1,6]naphthyridin-9-yl)-1H-pyrazol-1-yl)-1-methylcyclohexane-1-carboxylic acid]",< 10 nM
19,"CN(C)C(=O)N1CCC(n2cc(-c3cnc4ccn5cc(-c6c(Cl)cccc6Cl)nc5c4c3)cn2)C1 (stereo not drawn) [Example 50, 3-(4-(2-(2,6-Dichlorophenyl)imidazo[2,1-f][1,6]naphthyridin-9-yl)-1H-pyrazol-1-yl)-N,N-dimethylpyrrolidine-1-carboxamide]",< 10 nM
20,"CN(C)S(=O)(=O)N1CCC(n2cc(-c3cnc4ccn5cc(-c6c(Cl)cccc6Cl)nc5c4c3)cn2)C1 (stereo not drawn) [Example 51, 3-(4-(2-(2,6-Dichlorophenyl)imidazo[2,1-f][1,6]naphthyridin-9-yl)-1H-pyrazol-1-yl)-N,N-dimethylpyrrolidine-1-sulfonamide]",< 10 nM
21,"CC(=O)N1CC[C@H](n2cc(-c3cnc4ccn5c(C)c(-c6c(Cl)cccc6Cl)nc5c4c3)cn2)C1 [Example 52, (S)-1-(3-(4-(2-(2,6-Dichlorophenyl)-3-methylimidazo[2,1-f][1,6]naphthyridin-9-yl)-1H-pyrazol-1-yl)pyrrolidin-1-yl)ethan-1-one]",< 10 nM
22,"Cc1c(-c2c(Cl)cccc2Cl)nc2c3cc(-c4cnn([C@H]5CCN(C(=O)CO)C5)c4)cnc3ccn12 [Example 53, (S)-1-(3-(4-(2-(2,6-Dichlorophenyl)-3-methylimidazo[2,1-f][1,6]naphthyridin-9-yl)-1H-pyrazol-1-yl)pyrrolidin-1-yl)-2-hydroxyethan-1-one]",< 10 nM
23,"Cc1c(-c2c(Cl)cccc2Cl)nc2c3cc(-c4cnn(C56CC5CN(C(=O)CO)C6)c4)cnc3ccn12 (stereo not drawn) [Example 54, 1-(1-(4-(2-(2,6-Dichlorophenyl)-3-methylimidazo[2,1-f][1,6]naphthyridin-9-yl)-1H-pyrazol-1-yl)-3-azabicyclo[3.1.0]hexan-3-yl)-2-hydroxyethan-1-one]",< 10 nM
24,"O=C(CO)N1CC[C@H](n2cc(-c3cnc4ccn5c(CO)c(-c6c(Cl)cccc6Cl)nc5c4c3)cn2)C1 [Example 55, (S)-1-(3-(4-(2-(2,6-Dichlorophenyl)-3-(hydroxymethyl)imidazo[2,1-f][1,6]naphthyridin-9-yl)-1H-pyrazol-1-yl)pyrrolidin-1-yl)-2-hydroxyethan-1-one]",< 10 nM
25,"CC(=O)N1CC[C@H](n2cc(-c3cnc4ccn5c(CO)c(-c6c(Cl)cccc6Cl)nc5c4c3)cn2)C1 [Example 56, (S)-1-(3-(4-(2-(2,6-Dichlorophenyl)-3-(hydroxymethyl)imidazo[2,1-f][1,6]naphthyridin-9-yl)-1H-pyrazol-1-yl)pyrrolidin-1-yl)ethan-1-one]",< 10 nM
26,"O=C(N1CCOCC1)N1CC[C@H](n2cc(-c3cnc4ccn5c(CO)c(-c6c(Cl)cccc6Cl)nc5c4c3)cn2)C1 [Example 57, (S)-(3-(4-(2-(2,6-Dichlorophenyl)-3-(hydroxymethyl)imidazo[2,1-f][1,6]naphthyridin-9-yl)-1H-pyrazol-1-yl)pyrrolidin-1-yl)(morpholino)methanone]",< 10 nM
27,"CC(O)c1c(-c2c(Cl)cccc2Cl)nc2c3cc(-c4cnn([C@H]5CCN(C(=O)CO)C5)c4)cnc3ccn12 (stereo partly drawn) [Example 58, 1-((3S)-3-(4-(2-(2,6-dichlorophenyl)-3-(1-hydroxyethyl)imidazo[2,1-f][1,6]naphthyridin-9-yl)-1H-pyrazol-1-yl)pyrrolidin-1-yl)-2-hydroxyethan-1-one]",< 10 nM

# — US12552804B2, “Tricyclic heterocycles as FGFR inhibitors” (Incyte Corporation, priority 2019, dated 2026)
